Reference: patent publication US8642096B2, “Pharmaceutical composition containing herbal extract for prevention or treatment of nephritis” (Ahn-Gook Pharmaceutical Co., Ltd., priority 2009, dated 2014)
“And” between values parts separate entries of the source, which are not always exact repeats. Equal entries are not always repeated.

Tests used:
[1] = tested on: gentamicin-induced nephritis model; assay: Therapeutic effect of compounds 1-3 on gentamicin-induced nephritis model (Experimental Example 10); format: in vivo, male SD rats; conditions: for Creatinine / B.U.N.: 20 mg/kg; for Creatinine: negative control 1.32 ± 0.12, normal 0.45 ± 0.01; for B.U.N.: negative control 83.0 ± 5.1, normal 12.4 ± 0.6
Experimental: A normal group was subjected to the tests, where a nephritis-inducing factor, gentamicin (purchased from Whail Pharma. Co., Ltd.) was administered to male SD rats (7 weeks old, 195-205 g, Orient) at a dosage of 240 mg/kg for 6 days through an intraperitioneal injection to induce nephritis. Among the test rats with induced nephritis, the test groups other than the negative control group received the 2 test drugs of Example 2 or the test drug of Example 3.1 or 3.4 orally at a daily dosage of 400 mg/kg. The test rats were autopsied 7 days after the oral administrations. The blood samples collected were analyzed to detect blood urea nitrogen (B.U.N.) and creatinine.
To evaluate the therapeutic effect for nephritis of the three compounds of Experimental Example 9, the procedures were carried out in the same manner of Experimental Example 1 to measure the B.U.N and creatinine contents in the gentamicin-induced nephritis model. Reagents were the compounds 1, 2 and 3, which were the active fractions from the herbal extracts of Cinnamomi Cortex and Prunella Spica.

[2] = tested on: croton oil-induced ear edema; assay: Mouse ear edema inhibition test (croton oil); format: in vivo, male ICR mouse; conditions: ear swelling thickness 4 hours after 2.5% croton oil, oral 20 mg/kg, 1 hour before
Experimental: To achieve active fraction and ingredient identification of herbal extracts, an activity-guided sub-fractionation was conducted by way of a mouse ear edema inhibition test. To evaluate the edema inhibitory effects of the MC, EA and BuOH fractions from the herbal extracts of Examples 1.2 and 1.3 and the three compounds identified above, an activity test was conducted according to a method by Hee Kee Kim et al. [Hee Kee Kim et al., Arch. Pharm. Res. 16(1), 1993, 18-24]. The positive control group received Indomethacin (purchased from Sigma) at a dosage of 20 mg/kg. The test group received 200 mg/kg of the MC, EA or BuOH fraction, or 20 mg/kg of the compound 1, 2 or 3. One hour after the oral administration, 2.5% croton oil (purchased from Sigma) was applied to the one ear of a male ICR mouse (7 weeks old, 28-32 g, Orient) to induce an acute inflammation. In 4 hours, the swelling of the ear was measured in terms of thickness.

[3] = relative to negative control group

O=C(O)C=Cc1ccccc1 [Compound 1, Cinnamic acid] was tested, and the Creatinine [1] was 0.81 ± 0.07 mg/dL, the B.U.N. [1] was 47.7 ± 5.7 mg/dL and the “effect on blood urea nitrogen (B.U.N.) content” value [1, 3] was “showed an effect of reducing the blood urea nitrogen (B.U.N.) content”. The “effect on creatinine content” value [1, 3] was “reduced the creatinine content” and the “% Inhibition” value ([2]; 20 mg/kg) was 42% and 42.40%.
COc1ccc2c(c1)c(CC(=O)O)c(C)n2C(=O)c1ccc(Cl)cc1 [Positive Control Group, Indomethacin, reference compound] was tested, and the “% Inhibition” value ([2]; 20 mg/kg) was 38.81% and the “% Inhibition” value ([2]; listed as positive control group, 20 mg/kg) was 39%.
O=c1ccc2ccccc2o1 [Compound 2, Coumarin] was tested, and the Creatinine [1] was 0.88 ± 0.06 mg/dL, the B.U.N. [1] was 50.9 ± 4.7 mg/dL and the “effect on blood urea nitrogen (B.U.N.) content” value [1, 3] was “showed an effect of reducing the blood urea nitrogen (B.U.N.) content”. The “% Inhibition” value ([2]; 20 mg/kg) was 39% and 38.79%.
O=C(/C=C/c1ccc(O)c(O)c1)O[C@H](Cc1ccc(O)c(O)c1)C(=O)O [Compound 3, Rosmarinic acid] was tested, and the Creatinine [1] was 0.97 ± 0.06 mg/dL, the B.U.N. [1] was 63.1 ± 7.2 mg/dL and the “% Inhibition” value [2] was 28.90%.
